Tests used:
[1] = molecular target: T1, TsoI (Thermus scotoductus, UniProt T1RQY5); test: DNA cleavage assays on lambda DNA and single-site PCR substrate, agarose gel; format: biochemical; details: activator, putative allosteric; weak stimulation of REase; 50 uM effector; 10 mM MgCl2, pH 7.5, 55°C, 30 min or 16 h
T1 construct: gene tsoIRM; native (wt) full-length enzyme purified to homogeneity from T. scotoductus; monomer
T1 sequence (T1RQY5 1-1116): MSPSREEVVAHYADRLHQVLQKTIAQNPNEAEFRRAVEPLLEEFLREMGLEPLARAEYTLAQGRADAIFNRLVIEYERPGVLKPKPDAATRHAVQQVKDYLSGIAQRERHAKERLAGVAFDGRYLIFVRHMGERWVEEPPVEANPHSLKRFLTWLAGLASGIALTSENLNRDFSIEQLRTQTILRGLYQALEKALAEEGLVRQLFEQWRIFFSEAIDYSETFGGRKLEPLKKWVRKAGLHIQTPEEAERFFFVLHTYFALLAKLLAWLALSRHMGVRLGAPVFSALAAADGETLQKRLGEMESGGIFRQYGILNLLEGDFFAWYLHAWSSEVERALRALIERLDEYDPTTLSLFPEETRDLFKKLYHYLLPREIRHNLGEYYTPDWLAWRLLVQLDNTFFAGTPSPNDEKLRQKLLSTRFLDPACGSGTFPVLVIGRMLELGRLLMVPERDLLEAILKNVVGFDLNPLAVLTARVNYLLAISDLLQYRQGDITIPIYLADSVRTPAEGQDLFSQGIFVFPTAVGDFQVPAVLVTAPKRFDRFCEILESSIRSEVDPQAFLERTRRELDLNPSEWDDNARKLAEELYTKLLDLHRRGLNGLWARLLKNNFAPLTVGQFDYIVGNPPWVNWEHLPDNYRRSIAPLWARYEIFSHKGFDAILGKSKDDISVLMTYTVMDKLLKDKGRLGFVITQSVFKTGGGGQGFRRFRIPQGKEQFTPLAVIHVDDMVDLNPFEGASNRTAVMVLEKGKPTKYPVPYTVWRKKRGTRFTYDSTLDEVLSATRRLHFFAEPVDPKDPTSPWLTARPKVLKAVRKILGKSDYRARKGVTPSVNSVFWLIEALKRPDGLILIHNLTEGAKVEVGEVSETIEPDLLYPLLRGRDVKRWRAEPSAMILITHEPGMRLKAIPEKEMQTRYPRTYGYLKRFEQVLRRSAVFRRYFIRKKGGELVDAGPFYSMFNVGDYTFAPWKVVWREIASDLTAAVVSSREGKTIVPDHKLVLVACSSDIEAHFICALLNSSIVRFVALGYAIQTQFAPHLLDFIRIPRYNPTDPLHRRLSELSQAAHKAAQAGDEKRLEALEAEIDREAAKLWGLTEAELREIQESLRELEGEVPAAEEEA

[2] = molecular target: T1, TsoI; test: DNA cleavage assay on lambda DNA, agarose gel; format: biochemical; details: activator, putative allosteric; weak stimulation of REase; 50 uM effector; 10 mM MgCl2, pH 7.5, 55°C, 30 min

| SMILES | DNA cleavage assays on lambda DNA and single-site PCR substrate, agarose gel [1] | DNA cleavage assay on lambda DNA, agarose gel [2] |
| --- | --- | --- |
| C[S+](CC[C@H](N)C(=O)O)C[C@H]1O[C@@H](n2cnc3c(N)ncnc32)[C@H](O)[C@@H]1O (stereo partly drawn) [SAM] | activation of REase function by SAM, SIN and SAH is weak, but detectable | – |
| Nc1ncnc2c1ncn2[C@@H]1O[C@H](C[C@@H](N)CC[C@H](N)C(=O)O)[C@@H](O)[C@H]1O [SIN] | – | activation of REase function by SAM, SIN and SAH is weak, but detectable |
| Nc1ncnc2c1ncn2[C@@H]1O[C@H](CSCC[C@H](N)C(=O)O)[C@@H](O)[C@H]1O [SAH] | – | activation of REase function by SAM, SIN and SAH is weak, but detectable |

— publication PMC3751577, “Three-stage biochemical selection: cloning of prototype class IIS/IIC/IIG restriction endonuclease-methyltransferase TsoI from the thermophile Thermus scotoductus” (BMC Molecular Biology, 2013)
